Literature values in US20150209310A1, “NACA FOR THE TREATMENT OF CHRONIC OR LOW IMPACT BRAIN TRAUMA” (Brighton Biotech, Inc., priority 2014, published 2015).

Conditions: background statement

Compound: CC(=O)N[C@@H](CS)C(=O)O [NAC, N-acetyl-L-cysteine]
- crossing of the blood-brain barrier: inability to cross the blood-brain barrier
